Assay results reported in US10499642B2, “Isoxazoline-substituted benzamides and analogues as insecticides” (SYNGENTA PARTICIPATIONS AG, priority 2015, dated 2019).

Tests used:
Type in all cases: in vivo
[1] = test system: Thrips tabaci; assay: Thrips tabaci (onion thrips) sunflower leaf disc test; conditions: foliar, 144 h
Method: Thrips tabaci (Onion Thrips):
Sunflower leaf discs were placed on agar in 24-well microtiter plates and sprayed with aqueous test solutions prepared from 10′000 ppm DMSO stock solutions. After drying the leaf discs were infested with a thrips population of mixed ages. The samples were assessed for mortality 6 days after infestation.

[2] = test system: Diabrotica Balteata; assay: Diabrotica balteata (corn root worm) maize sprout test; conditions: 96 h, read-out: effect in at least one of the two categories (mortality or growth inhibition)
Method in brief: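 Scoring covered both mortality and growth inhibition relative to untreated controls, 4 days post-infestation. Test solutions at 200 ppm, diluted in water from 10′000 ppm DMSO stocks, were sprayed onto agar-held maize sprouts, which after drying received 6 to 10 L2 larvae each well.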

[3] = test system: Spodoptera littoralis; assay: Spodoptera littoralis (Egyptian cotton leaf worm) cotton leaf disc test; conditions: foliar, 72 h, read-out: control (at least one of mortality, anti-feedant effect, and growth inhibition)
Method in brief: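 Five first-instar larvae per disc were placed on dried, sprayed cotton leaf discs held on agar. Test solutions were aqueous, made from 10′000 ppm DMSO stocks. At day 3, control was counted when mortality, feeding deterrence or growth inhibition exceeded the untreated discs.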

[4] = test system: Plutella xylostella; assay: Plutella xylostella (diamond back moth) artificial diet test; conditions: 120 h, read-out: effect in at least one of the two categories (mortality or growth inhibition)
Method in brief: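 At a 200 ppm rate, test solutions were applied to artificial diet and allowed to dry before second-instar larvae were added. Five days later, larval mortality and growth inhibition were rated against untreated samples.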

[5] = test system: Myzus persicae; assay: Myzus persicae (green peach aphid) sunflower leaf disc test; conditions: foliar, 144 h
Method: Myzus persicae (Green Peach Aphid):
Sunflower leaf discs were placed on agar in a 24-well microtiter plate and sprayed with test solutions at an application rate of 200 ppm. After drying, the leaf discs were infested with an aphid population of mixed ages. After an incubation period of 6 days after treatment, samples were checked for mortality. The following compounds gave at least 80% mortality of Myzus persicae: […]

[6] = test system: Tetranychus urticae; assay: Tetranychus urticae (two-spotted spider mite) bean leaf disc test; conditions: foliar, 192 h
Method: Tetranychus urticae (Two-Spotted Spider Mite):
Bean leaf discs on agar in 24-well microtiter plates were sprayed with aqueous test solutions prepared from 10′000 ppm DMSO stock solutions. After drying the leaf discs were infested with a mite population of mixed ages. The samples were assessed for mortality on mixed population (mobile stages) 8 days after infestation.

COC1=NO[C@@H](NC(=O)c2ccc(C3=NO[C@@](c4cc(Cl)c(Cl)c(Cl)c4)(C(F)(F)F)C3)cc2C)C1 (single isomer, unassigned) [Compound A149]
≥ 80%: mortality at 200 ppm [1] | percent effect (mortality or growth inhibition) at 200 ppm [2] | percent control (mortality, anti-feedant effect or growth inhibition) at 200 ppm [3] | percent effect (mortality or growth inhibition) at 200 ppm [4] | mortality at 200 ppm [5] | mortality at 200 ppm [6]

Cc1cc(C2=NO[C@@](c3cc(Cl)c(Cl)c(Cl)c3)(C(F)(F)F)C2)ccc1C(=O)NC1CC(OCc2ccncc2)=NO1 (stereo partly drawn) [Compound A124, 2-methyl-N-[3-(4-pyridylmethoxy)-4,5-dihydroisoxazol-5-yl]-4-[(5S)-5-(3,4,5-trichlorophenyl)-5-(trifluoromethyl)-4H-isoxazol-3-yl]benzamide]
≥ 80%: mortality at 200 ppm [1] | percent effect (mortality or growth inhibition) at 200 ppm [2] | percent control (mortality, anti-feedant effect or growth inhibition) at 200 ppm [3] | percent effect (mortality or growth inhibition) at 200 ppm [4] | mortality at 200 ppm [5] | mortality at 200 ppm [6]

CC(=O)OCC1=NOC(NC(=O)c2ccc(C3=NO[C@@](c4cc(Cl)c(F)c(Cl)c4)(C(F)(F)F)C3)cc2C)C1 (stereo partly drawn) [Compound A069]
≥ 80%: mortality at 200 ppm [1] | percent effect (mortality or growth inhibition) at 200 ppm [2] | percent control (mortality, anti-feedant effect or growth inhibition) at 200 ppm [3] | percent effect (mortality or growth inhibition) at 200 ppm [4] | mortality at 200 ppm [5] | mortality at 200 ppm [6]

COC1=NOC(NC(=O)c2ccc(C3=NO[C@@](c4cc(Cl)cc(Cl)c4)(C(F)(F)F)C3)cc2C)C1 (stereo partly drawn) [Compound A054]
≥ 80%: mortality at 200 ppm [1] | percent effect (mortality or growth inhibition) at 200 ppm [2] | percent control (mortality, anti-feedant effect or growth inhibition) at 200 ppm [3] | percent effect (mortality or growth inhibition) at 200 ppm [4] | mortality at 200 ppm [5] | mortality at 200 ppm [6]

Cc1cc(C2=NO[C@@](c3cc(Cl)cc(Cl)c3)(C(F)(F)F)C2)ccc1C(=O)N[C@@H]1CC(OCC(F)(F)F)=NO1 (single isomer, unassigned) [Compound A156]
≥ 80%: mortality at 200 ppm [1] | percent effect (mortality or growth inhibition) at 200 ppm [2] | percent control (mortality, anti-feedant effect or growth inhibition) at 200 ppm [3] | percent effect (mortality or growth inhibition) at 200 ppm [4] | mortality at 200 ppm [5] | mortality at 200 ppm [6]

Cc1cc(C2=NO[C@@](c3cc(Cl)c(F)c(Cl)c3)(C(F)(F)F)C2)ccc1C(=O)NC1CC(OCC[Si](C)(C)C)=NO1 (stereo partly drawn) [Compound A109]
≥ 80%: mortality at 200 ppm [1] | percent effect (mortality or growth inhibition) at 200 ppm [2] | percent control (mortality, anti-feedant effect or growth inhibition) at 200 ppm [3] | percent effect (mortality or growth inhibition) at 200 ppm [4] | mortality at 200 ppm [5] | mortality at 200 ppm [6]

C#CCOC1=NOC(NC(=O)c2ccc(C3=NO[C@@](c4cc(Cl)c(F)c(Cl)c4)(C(F)(F)F)C3)cc2C)C1 (stereo partly drawn) [Compound A074]
≥ 80%: mortality at 200 ppm [1] | percent effect (mortality or growth inhibition) at 200 ppm [2] | percent control (mortality, anti-feedant effect or growth inhibition) at 200 ppm [3] | percent effect (mortality or growth inhibition) at 200 ppm [4] | mortality at 200 ppm [5] | mortality at 200 ppm [6]

O=C(NC1CC(Cl)=NO1)c1ccc(C2=NO[C@@](c3cc(Cl)c(Cl)c(Cl)c3)(C(F)(F)F)C2)cc1Cl (stereo partly drawn) [Compound A018, 2-chloro-N-(3-chloro-4,5-dihydroisoxazol-5-yl)-4-[(5S)-5-(3,4,5-trichlorophenyl)-5-(trifluoromethyl)-4H-isoxazol-3-yl]benzamide]
≥ 80%: mortality at 200 ppm [1] | percent effect (mortality or growth inhibition) at 200 ppm [2] | percent control (mortality, anti-feedant effect or growth inhibition) at 200 ppm [3] | percent effect (mortality or growth inhibition) at 200 ppm [4] | mortality at 200 ppm [5] | mortality at 200 ppm [6]

CO/N=C(\C)COC1=NOC(NC(=O)c2ccc(C3=NO[C@@](c4cc(Cl)c(Cl)c(Cl)c4)(C(F)(F)F)C3)cc2C)C1 (stereo partly drawn) [Compound A116, N-[3-[(2E)-2-methoxyiminopropoxy]-4,5-dihydroisoxazol-5-yl]-2-methyl-4-[(5S)-5-(3,4,5-trichlorophenyl)-5-(trifluoromethyl)-4H-isoxazol-3-yl]benzamide]
≥ 80%: mortality at 200 ppm [1] | percent effect (mortality or growth inhibition) at 200 ppm [2] | percent control (mortality, anti-feedant effect or growth inhibition) at 200 ppm [3] | percent effect (mortality or growth inhibition) at 200 ppm [4] | mortality at 200 ppm [5] | mortality at 200 ppm [6]

Cc1cc(C2=NO[C@@](c3cc(Cl)cc(Cl)c3)(C(F)(F)F)C2)ccc1C(=O)NC1CC(OCC(F)F)=NO1 (stereo partly drawn) [Compound A128]
≥ 80%: mortality at 200 ppm [1] | percent effect (mortality or growth inhibition) at 200 ppm [2] | percent control (mortality, anti-feedant effect or growth inhibition) at 200 ppm [3] | percent effect (mortality or growth inhibition) at 200 ppm [4] | mortality at 200 ppm [5] | mortality at 200 ppm [6]

CCCOC1=NOC(NC(=O)c2ccc(C3=NO[C@@](c4cc(Cl)c(F)c(Cl)c4)(C(F)(F)F)C3)cc2C)C1 (stereo partly drawn) [Compound A070]
≥ 80%: mortality at 200 ppm [1] | percent effect (mortality or growth inhibition) at 200 ppm [2] | percent control (mortality, anti-feedant effect or growth inhibition) at 200 ppm [3] | percent effect (mortality or growth inhibition) at 200 ppm [4] | mortality at 200 ppm [5] | mortality at 200 ppm [6]

Cc1cc(C2=NO[C@@](c3cc(Cl)c(F)c(Cl)c3)(C(F)(F)F)C2)ccc1C(=O)N(C=O)C1CC(Cl)=NO1 (stereo partly drawn) [Compound A011, N-(3-chloro-4,5-dihydroisoxazol-5-yl)-4-[(5S)-5-(3,5-dichloro-4-fluoro-phenyl)-5-(trifluoromethyl)-4H-isoxazol-3-yl]-N-formyl-2-methyl-benzamide]
≥ 80%: mortality at 200 ppm [1] | percent effect (mortality or growth inhibition) at 200 ppm [2] | percent control (mortality, anti-feedant effect or growth inhibition) at 200 ppm [3] | percent effect (mortality or growth inhibition) at 200 ppm [4] | mortality at 200 ppm [5] | mortality at 200 ppm [6]

CCC1=NOC(NC(=O)c2ccc(C3=NO[C@@](c4cc(Cl)c(F)c(Cl)c4)(C(F)(F)F)C3)cc2C)C1 (stereo partly drawn) [Compound A026, 4-[(5S)-5-(3,5-dichloro-4-fluoro-phenyl)-5-(trifluoromethyl)-4H-isoxazol-3-yl]-N-(3-ethyl-4,5-dihydroisoxazol-5-yl)-2-methyl-benzamide]
≥ 80%: mortality at 200 ppm [1] | percent effect (mortality or growth inhibition) at 200 ppm [2] | percent control (mortality, anti-feedant effect or growth inhibition) at 200 ppm [3] | percent effect (mortality or growth inhibition) at 200 ppm [4] | mortality at 200 ppm [5] | mortality at 200 ppm [6]

Cc1cc(C2=NO[C@@](c3cc(Cl)c(F)c(Cl)c3)(C(F)(F)F)C2)ccc1C(=O)N(C(=O)OC(C)(C)C)C1CC=NO1 (stereo partly drawn) [Compound A086, tert-butyl N-[4-[(5S)-5-(3,5-dichloro-4-fluoro-phenyl)-5-(trifluoromethyl)-4H-isoxazol-3-yl]-2-methyl-benzoyl]-N-(4,5-dihydroisoxazol-5-yl)carbamate]
≥ 80%: mortality at 200 ppm [1] | percent effect (mortality or growth inhibition) at 200 ppm [2] | percent control (mortality, anti-feedant effect or growth inhibition) at 200 ppm [3] | percent effect (mortality or growth inhibition) at 200 ppm [4] | mortality at 200 ppm [5] | mortality at 200 ppm [6]

CCC1=NOC(N(C=O)C(=O)c2ccc(C3=NO[C@@](c4cc(Cl)c(F)c(Cl)c4)(C(F)(F)F)C3)cc2C)C1 (stereo partly drawn) [Compound A022, 4-[(5S)-5-(3,5-dichloro-4-fluoro-phenyl)-5-(trifluoromethyl)-4H-isoxazol-3-yl]-N-(3-ethyl-4,5-dihydroisoxazol-5-yl)-N-formyl-2-methyl-benzamide]
≥ 80%: mortality at 200 ppm [1] | percent effect (mortality or growth inhibition) at 200 ppm [2] | percent control (mortality, anti-feedant effect or growth inhibition) at 200 ppm [3] | percent effect (mortality or growth inhibition) at 200 ppm [4] | mortality at 200 ppm [5] | mortality at 200 ppm [6]
